{"source": "patent US20110268729A1", "about": "“TREATMENT OF AMYOTROPHIC LATERAL SCLEROSIS BY NOGO-A-ANTAGONIST” (priority 2008, published 2011)", "tested_on": "SOD1^G93A mice", "assay": "In vivo ALS model muscle physiology study with 2A10 and riluzole", "design": "species or system mouse", "protocol": "Fresh solutions were prepared once a week with the total consumed volume measured in order to ensure a constant daily and weekly dose.", "data": [{"smiles": "Nc1nc2ccc(OC(F)(F)F)cc2s1", "note": "[Riluzole, 2-Amino-6-(trifluoromethoxy)benzothiazole]", "values": [{"measurement": "TA maximum tetanic force", "setting": "day 90, relative to SOD1-B vehicle group, riluzole 30 mg/kg p 0.0607, anti-Nogo-A 30 mg/kg p 0.1219, combination p 0.039", "result": "failed to reach statistical significance"}, {"measurement": "TA time to 1/2 relaxation", "setting": "day 90, vs SOD1 vehicle, riluzole plus 3 mg/kg anti-Nogo-A p value 0.0212", "result": "trend to normalisation"}]}]}
